From patent US8338423B2, “Compositions for the treatment of hyperphenylalaninemia” (Universidad de Zaragoza, priority 2007, dated 2012) come the findings set out here.

The target in one data set is T1, wt-PAH (Homo sapiens, UniProt P00439).
T1 construct: made in house; host or cells: E. coli
T1 sequence (P00439 1-452): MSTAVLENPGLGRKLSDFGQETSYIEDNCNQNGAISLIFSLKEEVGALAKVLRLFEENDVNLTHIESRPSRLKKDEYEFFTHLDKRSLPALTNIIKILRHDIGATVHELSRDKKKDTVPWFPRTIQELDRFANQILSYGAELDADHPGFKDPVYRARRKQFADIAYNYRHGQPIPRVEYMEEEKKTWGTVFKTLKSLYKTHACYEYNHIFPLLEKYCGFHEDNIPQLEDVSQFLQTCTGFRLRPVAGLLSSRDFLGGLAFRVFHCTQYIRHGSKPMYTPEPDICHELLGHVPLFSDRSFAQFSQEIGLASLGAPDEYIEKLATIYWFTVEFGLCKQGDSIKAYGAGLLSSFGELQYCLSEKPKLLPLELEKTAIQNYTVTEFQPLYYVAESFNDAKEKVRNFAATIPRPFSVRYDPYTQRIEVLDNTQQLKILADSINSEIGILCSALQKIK
Briefly: Quenching of PAH Trp-emission fluorescence. It is filed as binding. The following applies: apparent affinity, data not shown; read-out: ligand concentration inducing a 50% decrease in Trp-fluorescence. As to the method:
As expected, the stabilizing effect was concentration dependent for all four of them, being significant at 25 μM for compounds 11 and 13 (FIG. 2). […] The apparent affinities of wt-PAH for these four ligands were further studied by monitoring quenching effects of these ligands on PAH Trp-emission fluorescence (not shown). Ligands 11 and 13 induced significant fluorescence quenching, inducing a 50% decrease in Trp-fluorescence at ˜30 and ˜3 μM for ligands 11 and 13, respectively.

The target of a further data set is T2, PAH (Mus musculus, UniProt P16331).
T2 construct: Liver homogenates were prepared at 4° C; from tissue; host or cells: liver of C57Bl/6 mice
T2 sequence (P16331 1-453): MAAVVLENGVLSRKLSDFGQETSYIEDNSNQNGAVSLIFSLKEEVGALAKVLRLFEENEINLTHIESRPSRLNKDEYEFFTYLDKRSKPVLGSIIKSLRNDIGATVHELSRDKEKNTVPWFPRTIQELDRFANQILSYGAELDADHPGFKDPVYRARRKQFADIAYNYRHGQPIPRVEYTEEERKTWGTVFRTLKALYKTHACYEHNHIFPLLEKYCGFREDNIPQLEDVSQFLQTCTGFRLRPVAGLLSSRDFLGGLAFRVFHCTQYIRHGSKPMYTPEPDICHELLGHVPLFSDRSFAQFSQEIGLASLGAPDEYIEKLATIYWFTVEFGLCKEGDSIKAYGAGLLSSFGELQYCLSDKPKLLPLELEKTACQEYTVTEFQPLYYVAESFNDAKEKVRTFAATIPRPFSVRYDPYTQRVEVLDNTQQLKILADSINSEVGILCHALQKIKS
Briefly: Hepatic PAH activity in mice after oral treatment. It is filed as in vivo. As to conditions: oral about 5.9 mg/kg/day for 10 days; for measured PAH activity: liver extract, control group 1.27±0.63. As to the method:
(§1) Solutions of Compounds 11 and Compound 13 were prepared at concentrations of 5 mg/ml (14 mM) in 10% DMSO and 10% glucose. For that, stocks of 50 mg/ml (140 mM) of each compound in 100% DMSO were diluted 1:10 with a 10% glucose solution. Both the stocks and the final solutions of Compounds 11 and 13 are in fact suspensions since the compound is not soluble al these conditions.
Animal experiments were performed by Beat Töny (University of Zurich Children's Hospital). 25 μl/day of 10% DMSO (Group 1, control) or the solutions of Compound 11 (Group 2) or Compound 13 (Group […]) were administered orally for 10 days to young adult C57BI/6 mice (all females) exactly 12 weeks old and with weight between 19 to 23 g were in each group, i.e. in Group 2 and 3 animals were given about 5.9 mg/kg/day. Five animals were treated in each group, and no weight change was experienced upon treatment, i.e. <5% change between start and end. Animals were sacrificed at day 10 of treatment, and their livers were sectioned in two frozen immediately in liquid nitrogen, then the frozen half-livers were sent to the Department of Biomedicine, University of Bergen in dry ice. Liver homogenates were prepared at 4° C. in presence of dithiothreitol (DTT) and the protease inhibitors phenylmethylsulfonyl fluoride, leupeptin, and pepstatin as described, Elzaouk L, et al. J Biol Chem 2003; 278(30):28303-11. After homogeneization the extracts were clarified by centrifugation al 170,000 g for 30 min at 4° C.
The concentration of soluble protein was about 35 mg/ml of liver extract, similar in each group. The hepatic PAH response to oral supplementation of DMSO and of Compounds 11, 13 in 10% DMSO was analyzed b determining: • i) PAH activity, as described, after removal of free amino acids and contaminants of low molecular weight by using Zebra™ Desalt Spin columns(Pierce). • ii) Pah-mRNA expression by quantitative real-time PCR analysis, performed as reported

The nature of data set [1]: Solubility in dosing stocks and final solutions. It is filed as physicochemical. The following applies: 50 mg/ml in 100% DMSO stock and 5 mg/ml in 10% DMSO and 10% glucose. As to the method:
as §1

pEC50: −log10 of the molar value.

Regarding `Nc1c(-c2ccc3ccccc3n2)c2ccc([N+](=O)[O-])cc2c(=O)n1Cc1ccccc1` [Compound 11, 3-amino-2-benzyl-7-nitro-4-(2-quinolyl)-1,2-dihydroisoquinolin-1-one], on wt-PAH, the pEC50 is around 4.52. Moreover, at PAH, the “measured PAH activity” value is 2.2±0.78. Further, the “increase in PAH activity” value on PAH (liver, C57BI/6 mice) is recorded as 1.65 fold. Also, the solubility entry in data set [1] is “not soluble”.

In the case of `Cc1ccnc(-n2c(=S)[nH]c3sc(C)c(C)c3c2=O)c1` [Compound 13, 5,6-dimethyl-3-(4-methyl-2-pyridinyl)-2-thioxo-2,3 dihydrothieno[2,3-d]pyrimidin-4(1H)-one], the pEC50 at wt-PAH was around 5.52. The “measured PAH activity” value on PAH was 1.41±0.54. Moreover, the “increase in PAH activity (significance)” value at PAH (liver) is “not significant”. In data set [1], the solubility result is given as “not soluble”.
